In ChEMBL document CHEMBL1126452, “Synthesis of stereochemically defined phosphonamidate-containing peptides: Inhibitors for the HIV-1 proteinase” (Bioorg Med Chem Lett, 1992):

target: Human immunodeficiency virus type 1 protease (Human immunodeficiency virus 1, UniProt Q72874); assay: Inhibitory concentration against HIV-1 Protease at pH 5.6 and at 37 degrees C

| Compound | IC50 [µM] |
| --- | --- |
| CCC(C)[C@H](NC(=O)[C@@H]1CCCN1P(=O)(OC)C(Cc1ccccc1)NC(=O)[C@H](CC(N)=O)NC(=O)OC(C)(C)C)C(=O)NCC(C)C (single isomer, unassigned) | 43.2 |
| CCC(C)[C@H](NC(=O)[C@@H]1CCCN1P(=O)(OC)[C@H](Cc1ccccc1)NC(=O)[C@H](CC(N)=O)NC(=O)OC(C)(C)C)C(=O)NCC(C)C (single isomer, unassigned; 2a) | 141 |
| CCC(C)[C@H](NC(=O)[C@@H]1CCCN1P(=O)(O)C(Cc1ccccc1)NC(=O)[C@H](CC(N)=O)NC(=O)OC(C)(C)C)C(=O)NCC(C)C (stereo not given in full) | 118 |

Other lines, results leading:

| IC50 [µM] | Compound |
| --- | --- |
| 576 | CCC(C)[C@H](NC(=O)[C@@H]1CCCN1P(=O)(OC)[C@@H](Cc1ccccc1)NC(=O)[C@H](CC(N)=O)NC(=O)OC(C)(C)C)C(=O)NCC(C)C (single isomer, unassigned) |
| 134 | CCC(C)[C@H](NC(=O)[C@@H]1CCCN1P(=O)(OC)[C@H](Cc1ccccc1)NC(=O)[C@H](CC(N)=O)NC(=O)OC(C)(C)C)C(=O)NCC(C)C (single isomer, unassigned; 2d) |
